Data from PMC3366986, “On the Mechanism of Action of SJ-172550 in Inhibiting the Interaction of MDM4 and p53” (PLoS ONE, 2012).
Converted amounts (≈) assume the structure as drawn.

Columns and labels:
MDMX (23–111) = target: T1, MDMX (23–111) (Homo sapiens, UniProt O15151); assay: thermal stability of MDMX by hydrophobic dye binding (thermal shift); conditions: for effect of reducing agent used alone on thermal stability of MDMX: without compound 1
T1 construct: Thermal shift data for MDMX (23–111) showing a 7 degree stabilization; made in house; host or cells: E. coli BL21(DE3)
T1 sequence (O15151 23-111): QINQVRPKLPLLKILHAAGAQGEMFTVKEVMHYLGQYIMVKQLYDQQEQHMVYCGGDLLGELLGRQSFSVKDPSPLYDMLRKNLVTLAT
Protocol: The ITD measurements were performed with a RT-PCR instrument (Applied Biosystems 7900HT) equipped with a 384-well probe using SYBR detection (excitation 495/emission 537). The program used started at 45°C and the temperature increased at a rate of 1 degree per minute. […] The final volume was 20 µl for each well using 384 ABI PRISM™ plates (Applied Biosystems). The data was exported and evaluated using a custom data processing algorithm coded in Pipeline Pilot (Scitegic). Apparent melting temperatures were calculated by measuring the temperature at which the observed fluorescence signal was halfway between the baseline and the maximum. Binding curves were determined by graphing observed apparent melting temperature as a function of test compound concentrations. These curves were then fit to a four parameter sigmoidal dose response model using PRISM 5.0 (GraphPad Software, Inc.).

[1] = solubility assay (µSOL Evolution, pION); assay type: physicochemical; conditions: system solution buffer (SSB, pION), pH 7.4, aqueous buffer, kinetic from dmso stock
Protocol: Solubility assay was carried out on Biomek FX lab automation workstation (Beckman Coulter, Inc., Fullerton, CA) using µSOL Evolution software (pION Inc., Woburn, MA). The detailed method is described as following. 10 µL of 10 mM compound stock (in DMSO) was added to 190 µL 1-propanol to make a reference stock plate. 5 µL from this reference stock plate was mixed with 70 µL 1-propanol and 75 µL SSB (system solution buffer, pH adjusted to 7.4, pION Inc., Woburn, MA) to make the reference plate, and the UV spectrum (250 nm –500 nm) of the reference plate was read. 6 µL of 10 mM test compound stock was added to 594 µL SSB in a 96-well storage plate and mixed. The storage plate was sealed and incubated at room temperature for 18 hours. The suspension was then filtered through a 96-well filter plate (pION Inc., Woburn, MA). 75 µL filtrate was mixed with 75 µL 1-propanol to make the sample plate, and the UV spectrum of the sample plate was read. Calculation was carried out by µSOL Evolution software based on the AUC (area under curve) of UV spectrum of the sample plate and the reference plate. All compounds were tested in triplicates.

[2] = target: T2, hMDMX (GST-tagged, a.a. 1–185) (Homo sapiens, UniProt O15151); assay: fluorescence polarization competition assay, MDMX-p53 peptide binding; conditions: for IC50: Figure 3, read-out: IC50, inhibition of MDMX-p53 peptide binding
T2 construct: hMDMX (GST-tagged, a.a. 1–185); made in house; host or cells: E. coli BL21(DE3)
T2 sequence (O15151 1-185): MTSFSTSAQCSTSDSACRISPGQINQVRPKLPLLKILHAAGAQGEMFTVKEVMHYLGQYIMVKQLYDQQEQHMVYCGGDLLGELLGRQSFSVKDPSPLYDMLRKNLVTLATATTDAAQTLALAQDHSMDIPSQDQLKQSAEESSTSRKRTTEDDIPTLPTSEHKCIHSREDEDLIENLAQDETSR
Protocol: All fluorescence polarization assays were performed in binding buffer (10 mM Tris, pH 8.0, 170 mM NaCl, 0.05% Tween-20) unless otherwise noted. For competition assays a master mix of 15 nM Texas red-labeled (N-terminal label) P53 Peptide (sequence: […]) with 1 µM hMDMX (GST-tagged, a.a. 1–185) was prepared and 20 µl was added to black polystyrene 384 well plates (Corning #3573). DMSO stock solutions of test compounds were then added by pin transfer (V&P scientific) in nano-liter volumes (maximum final DMSO percentage = 1%). The assay mixture was incubated at room temperature for one hour and read on an EnVision multi-label plate reader using a 555 nm excitation filter, a 632 nm emission filter, and a Texas Red FP dichroic mirror. Binding inhibition curves and IC50 values were determined by fitting observed mP values to a 4-parameter sigmoidal binding curve using PRISM 5.0 (GraphPad Software, Inc.).

hMDM2(18–125)C77V = target: T3, hMDM2(18–125)C77V (Homo sapiens, UniProt Q00987, C77V); assay: inhibition of p53 peptide binding to MDM2 cysteine mutant; conditions: hMDM2(18–125)C77V relative to MDM2; Figure S6
T3 construct: a mutant of MDM2 protein (hMDM2(18–125)C77V) lacking the cysteine

hMDMX (aa 23–111) = target: T4, hMDMX (aa 23–111) (Homo sapiens, UniProt O15151); assay: SPR binding of compound 1 to immobilized hMDMX; conditions: 100 µM
T4 construct: hMDMX (23–111) was immobilized to the SPR chips using a biotin tag; made in house
T4 sequence (O15151 23-111): T1 sequence (O15151 23-111)
Protocol: Binding studies were performed at 25°C using a Biacore T100 (GE Healthcare) surface plasmon resonance (SPR) instrument. Either streptavidin or NeutrAvidin (Thermo Scientific) was immobilized on a carboxymethyldextran-coated gold surface (CM5 chip; GE Healthcare) by standard amine coupling methods. The carboxymethyl groups of dextran were activated with N-ethyl-N ´-(3-dimethylaminopropyl) carbodiimide (EDC) and N-hydroxysuccinimide (NHS). For peptide experiments, streptavidin was attached at pH 4.5 in 10 mM sodium acetate to levels of ∼3000 RU per flow cell. For small molecule experiments, NeutrAvidin was attached at pH 5.0 in 10 mM sodium acetate to levels of ∼11000–12000 RU per flow cell. Any remaining reactive sites were blocked by reaction with ethanolamine. Biotin-MDM4 was captured on the chip by injection over the streptavidin or NeutrAvidin surface.
For peptide binding experiments, p53wt peptide was prepared as a 3-fold serial dilution in peptide binding buffer (20 mM Bis-Tris pH 6.5, 200 mM NaCl, 0.1 mg/mL bovine serum albumin, 0.005% Tween20, +/−1 mM TCEP). The peptide was injected in triplicate at each concentration at a flow rate of 75 µL/min. […] Equilibrium dissociation constants (K d) for peptide binding were determined by equilibrium affinity analysis with a 1∶1 binding model using Scrubber2.

GST-hMDMX = target: T5, GST-hMDMX (Homo sapiens, UniProt O15151); assay: mass spectrometry of covalent adducts, GST-tagged hMDMX
T5 construct: made in house; host or cells: E. coli BL21(DE3)
T5 sequence (O15151 1-185): T2 sequence (O15151 1-185)
Protocol: (§1) Samples were prepared in binding buffer (10 mM Tris, pH 8.0, 170 mM NaCl) with a 50 µl final volume. Samples were incubated at room temperature for 1.5 hours after which they were stored overnight at 4°C before analysis by mass spectrometry. Samples containing 1 µM hMDMX constructs were concentrated to 20 µM using 3000 MWCO centrifugal protein concentrators (Vivascience, Inc.) immediately prior to analysis. Prior to injection all samples were desalted using a reverse phase C8 Zip Tip (Millipore) and eluted in 50% acetonitrile, 2% formic acid. The samples were ionized by static nanospray using EconoTips (New Objective) on a Waters LCT Premier XE mass spectrometer using positive mode. The resultant charge envelope was deconvoluted using MaxEnt 1 algorithm of MassLynx V 4.0 sp 4 software. A mass error of 1Da for every 10,000 Da is permissible using this mass spectrometer.

[3] = target: T6, hMDMX (untagged aa 23 to 111 construct) (Homo sapiens, UniProt O15151); assay: mass spectrometry of covalent adducts, untagged hMDMX
T6 construct: hMDMX (untagged aa 23 to 111 construct); His-tag (cleaved yes); made in house; host or cells: E. coli BL21(DE3)
T6 sequence (O15151 23-111): T1 sequence (O15151 23-111)
Protocol: as §1

Mdm2 = Mdm2 (Homo sapiens, UniProt Q00987); assay: fluorescence polarization p53 peptide exclusion assay, Mdm2; assay type: binding; conditions: ND = compound does not noticeably block interaction with p53 peptide
Text: (§2) the α,β-unsaturated amide towards Mdm2 and Mdmx as determined using fluorescence
(§3) polarization p53 peptide exclusion assay. Compound core according to J. Biol. Chem. 2010;
(§4) 285: 10786 is marked in blue.
(§5) Compound Chemical formula Compound code Mdm2 MdmX […]

MDMX [4] = target: T7, MDMX (Homo sapiens, UniProt O15151); assay: fluorescence polarization p53 peptide exclusion assay, Mdmx; assay type: binding; conditions: ND = compound does not noticeably block interaction with p53 peptide
T7 sequence (O15151 1-490): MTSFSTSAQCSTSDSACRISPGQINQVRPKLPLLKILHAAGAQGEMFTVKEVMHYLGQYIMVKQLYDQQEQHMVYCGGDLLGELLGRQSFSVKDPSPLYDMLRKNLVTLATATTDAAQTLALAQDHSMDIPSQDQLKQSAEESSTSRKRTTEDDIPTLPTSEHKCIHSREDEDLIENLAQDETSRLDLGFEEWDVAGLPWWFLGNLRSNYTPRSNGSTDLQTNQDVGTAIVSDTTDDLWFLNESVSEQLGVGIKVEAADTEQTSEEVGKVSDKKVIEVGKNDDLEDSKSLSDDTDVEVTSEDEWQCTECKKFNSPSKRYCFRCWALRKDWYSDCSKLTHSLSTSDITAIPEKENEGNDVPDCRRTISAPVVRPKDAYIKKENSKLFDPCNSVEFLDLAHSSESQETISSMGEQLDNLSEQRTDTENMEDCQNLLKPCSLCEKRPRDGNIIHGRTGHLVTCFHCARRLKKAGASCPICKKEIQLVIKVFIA
Text: as §2, §3, §4, §5

C77A mutant of MDM2 = C77A mutant of MDM2 (Homo sapiens, UniProt Q00987, C77A); assay: covalent labelling of MDM2 C77A mutant; conditions: C77A mutation; Figure S6
MDMX [5] = target: T7, MDMX; set-up: method as in PMID 20080970; conditions: inhibition of the MDMX-p53 interaction; read-out: EC50, competition for wild type p53 peptide binding to MDMX; cited from earlier work
retinoblastoma cells = system: retinoblastoma cells; set-up: method as in PMID 20080970; conditions: cited from earlier work

Chain of C77A mutant of MDM2 (Q00987 whole entry C77A): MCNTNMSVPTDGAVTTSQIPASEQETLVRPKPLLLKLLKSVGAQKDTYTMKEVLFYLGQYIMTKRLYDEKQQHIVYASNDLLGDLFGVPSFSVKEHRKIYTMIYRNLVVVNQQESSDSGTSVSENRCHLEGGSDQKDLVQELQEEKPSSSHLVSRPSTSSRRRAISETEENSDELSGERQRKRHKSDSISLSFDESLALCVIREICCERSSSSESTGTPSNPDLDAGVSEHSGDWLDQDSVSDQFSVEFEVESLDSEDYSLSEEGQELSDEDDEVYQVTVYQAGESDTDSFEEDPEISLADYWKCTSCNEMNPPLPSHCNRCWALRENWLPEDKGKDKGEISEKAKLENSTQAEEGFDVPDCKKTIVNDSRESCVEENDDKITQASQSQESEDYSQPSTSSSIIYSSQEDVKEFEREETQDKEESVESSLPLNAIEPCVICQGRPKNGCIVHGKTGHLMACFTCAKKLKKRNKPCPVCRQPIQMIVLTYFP
T3 sequence (Q00987 18-125 C77V): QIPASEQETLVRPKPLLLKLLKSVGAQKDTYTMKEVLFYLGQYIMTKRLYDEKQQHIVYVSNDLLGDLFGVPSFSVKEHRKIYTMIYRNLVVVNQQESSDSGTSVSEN
Chain of Mdm2 (Q00987 whole entry): as the sequence (Q00987 whole entry C77A) above, with A77C counted along it

Question: With `O[C@@H](CS)[C@@H](O)CS` [DTT] as the compound, how does the “effect of reducing agent used alone on thermal stability of MDMX” value (MDMX (23–111)) read?
Answer: no apparent effect

Question: For `O=C(O)CCP(CCC(=O)O)CCC(=O)O` [TCEP], which “effect of reducing agent used alone on thermal stability of MDMX” value (MDMX (23–111)) is on record?
Answer: destabilized the protein at high concentrations

Question: For `CCOc1cc(/C=C2\C(=O)N(c3ccccc3)N=C2C)cc(Cl)c1OCC(=O)OC` [compound 1], which solubility at 18 h [1] is on record?
Answer: 12 µM (≈ 5.15 µg/mL)

Question: And the IC50 [2]?
Answer: 3 µM

Question: And the “reduction of potency after reaction with glutathione in situ” value ([2]; Figure S5, efficacy not completely removed)?
Answer: 10 fold

Question: What about the “weaker potency on cysteine-lacking mutant than on MDM2” value (hMDM2(18–125)C77V) of the same compound?
Answer: 10 fold

Question: And the “stabilization of the protein's melting point” value (MDMX (23–111); addition of compound 1)?
Answer: 7 degree

Question: What about the EC50 (MDMX (23–111); minimal time dependency (5 min vs 1 h), read-out: apparent EC50 of melting point stabilization) of the same compound?
Answer: ~1 µM

Question: And the “time to return to baseline after the pulse (off rate)” value (hMDMX (aa 23–111); non-reducing conditions)?
Answer: ~5 min

Question: What about the SPR binding (hMDMX (aa 23–111); reducing conditions (TCEP)) of the same compound?
Answer: no binding was observed

Question: What about the “covalent adduct formation (mass spectrum)” value (shortened to “covalent adduct formation”) (GST-hMDMX; 1 µM GST-hMDMX, 5 µM compound) of the same compound?
Answer: no alkylation events

Question: What about the “covalent adduct formation” value (GST-hMDMX; 20 µM GST-hMDMX, 100 µM compound) of the same compound?
Answer: multiple alkylation events

Question: And the “covalent adduct formation” value ([3]; 1 µM hMDMX, 5 µM compound)?
Answer: no alkylation

Question: And the “covalent adduct formation” value ([3]; 20 µM hMDMX, 100 µM compound)?
Answer: partial alkylation

Question: And the Ki (Mdm2)?
Answer: 5.21 µM

Question: And the Ki (MDMX [4])?
Answer: 8.07 µM

Question: And the “ability to covalently label MDM2” value (C77A mutant of MDM2)?
Answer: abolishes

Question: And the EC50 (MDMX [5])?
Answer: ~5 µM

Question: And the “p53 dependent cell death of retinoblastoma cells” value (retinoblastoma cells)?
Answer: caused p53 dependent cell death of retinoblastoma cells

Question: Which IC50 [2] does the source give for `CCOc1cc(CC2C(=O)N(c3ccccc3)N=C2C)cc(Cl)c1OCC(=O)OC` (centres unmarked) [compound 2] here?
Answer: > 100 µM

Question: What about the “reduction of inhibitory potency by saturation of the ene-amide group” value ([2]; compound 2 relative to compound 1) of the same compound?
Answer: roughly 30 fold

Question: With `O=C(O)c1cc(SSc2ccc([N+](=O)[O-])c(C(=O)O)c2)ccc1[N+](=O)[O-]` [DTNB, reference compound] as the compound, how does the “ability of treated MDMX to bind p53 peptide” value ([2]; MDMX treated with Ellman's reagent, Figure S3) read?
Answer: unable to bind p53 peptide

Question: What about the “effect on melting point of MDMX” value (MDMX (23–111); MDMX treated with Ellman's reagent, Figure S4) of the same compound?
Answer: partially stabilized
